Activity calls are given as the source filed them.
Columns and labels:
[1] = biological target: Peroxisome proliferator-activated receptor gamma/Nuclear receptor coactivator 2 (Homo sapiens, UniProt P37231); format: functional;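 note: agonist potency for raising coactivator recruitment to the receptor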
[2] = biological target: Peroxisome proliferator-activated receptor gamma/Nuclear receptor coactivator 3 (Homo sapiens, UniProt P37231); format: functional;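 note: agonist potency for raising coactivator recruitment to the receptor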
[3] = biological target: Peroxisome proliferator-activated receptor gamma/Nuclear receptor coactivator 1 (Homo sapiens, UniProt P37231); format: functional;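 note: agonist potency as compounds enhance coactivator SRC-1 recruitment to PPARgamma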
[4] = biological target: T1, Alkaline phosphatase, tissue-nonspecific isozyme (Homo sapiens, UniProt P05186); experiment: human TNAP enzyme inhibitors, SAR follow-up, biochemical, luminescent, dose response (AID 1056)
T1 sequence (P05186 whole entry): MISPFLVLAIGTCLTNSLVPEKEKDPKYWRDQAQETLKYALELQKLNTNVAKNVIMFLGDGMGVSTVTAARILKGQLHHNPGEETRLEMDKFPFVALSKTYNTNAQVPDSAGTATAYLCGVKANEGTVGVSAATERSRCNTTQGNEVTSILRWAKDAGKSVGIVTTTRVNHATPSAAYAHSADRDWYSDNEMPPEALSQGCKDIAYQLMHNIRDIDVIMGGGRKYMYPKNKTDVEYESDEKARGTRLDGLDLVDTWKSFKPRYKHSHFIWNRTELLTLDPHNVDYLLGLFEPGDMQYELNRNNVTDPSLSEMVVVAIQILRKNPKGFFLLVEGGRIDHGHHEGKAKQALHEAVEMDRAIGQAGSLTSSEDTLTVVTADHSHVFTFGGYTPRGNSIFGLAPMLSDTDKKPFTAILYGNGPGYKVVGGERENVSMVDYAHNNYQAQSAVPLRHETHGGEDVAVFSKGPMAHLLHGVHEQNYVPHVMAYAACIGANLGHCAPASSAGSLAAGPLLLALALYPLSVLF

[5] = biological target: Glyceraldehyde-3-phosphate dehydrogenase (Homo sapiens, UniProt P04406)
Sequence of Glyceraldehyde-3-phosphate dehydrogenase (P04406 whole entry): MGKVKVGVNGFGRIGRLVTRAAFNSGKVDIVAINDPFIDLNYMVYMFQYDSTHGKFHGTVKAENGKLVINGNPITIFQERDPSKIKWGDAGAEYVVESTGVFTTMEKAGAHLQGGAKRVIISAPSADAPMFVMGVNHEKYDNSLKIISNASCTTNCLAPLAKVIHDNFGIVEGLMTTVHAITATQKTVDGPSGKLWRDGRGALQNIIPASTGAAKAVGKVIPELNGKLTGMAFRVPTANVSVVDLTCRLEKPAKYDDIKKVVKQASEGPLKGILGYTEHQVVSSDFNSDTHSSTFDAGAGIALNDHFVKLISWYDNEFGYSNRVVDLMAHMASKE

[6] = biological target: T2, Beta-galactosidase (Escherichia coli, UniProt Q8VNN2); experiment: beta-galactosidase enzyme inhibitors and activators, dose response, artefact control for CCR6 antagonist project, biochemical, E. coli enzyme, set 3 (AID 504712); format: functional
T2 sequence (Q8VNN2 whole entry): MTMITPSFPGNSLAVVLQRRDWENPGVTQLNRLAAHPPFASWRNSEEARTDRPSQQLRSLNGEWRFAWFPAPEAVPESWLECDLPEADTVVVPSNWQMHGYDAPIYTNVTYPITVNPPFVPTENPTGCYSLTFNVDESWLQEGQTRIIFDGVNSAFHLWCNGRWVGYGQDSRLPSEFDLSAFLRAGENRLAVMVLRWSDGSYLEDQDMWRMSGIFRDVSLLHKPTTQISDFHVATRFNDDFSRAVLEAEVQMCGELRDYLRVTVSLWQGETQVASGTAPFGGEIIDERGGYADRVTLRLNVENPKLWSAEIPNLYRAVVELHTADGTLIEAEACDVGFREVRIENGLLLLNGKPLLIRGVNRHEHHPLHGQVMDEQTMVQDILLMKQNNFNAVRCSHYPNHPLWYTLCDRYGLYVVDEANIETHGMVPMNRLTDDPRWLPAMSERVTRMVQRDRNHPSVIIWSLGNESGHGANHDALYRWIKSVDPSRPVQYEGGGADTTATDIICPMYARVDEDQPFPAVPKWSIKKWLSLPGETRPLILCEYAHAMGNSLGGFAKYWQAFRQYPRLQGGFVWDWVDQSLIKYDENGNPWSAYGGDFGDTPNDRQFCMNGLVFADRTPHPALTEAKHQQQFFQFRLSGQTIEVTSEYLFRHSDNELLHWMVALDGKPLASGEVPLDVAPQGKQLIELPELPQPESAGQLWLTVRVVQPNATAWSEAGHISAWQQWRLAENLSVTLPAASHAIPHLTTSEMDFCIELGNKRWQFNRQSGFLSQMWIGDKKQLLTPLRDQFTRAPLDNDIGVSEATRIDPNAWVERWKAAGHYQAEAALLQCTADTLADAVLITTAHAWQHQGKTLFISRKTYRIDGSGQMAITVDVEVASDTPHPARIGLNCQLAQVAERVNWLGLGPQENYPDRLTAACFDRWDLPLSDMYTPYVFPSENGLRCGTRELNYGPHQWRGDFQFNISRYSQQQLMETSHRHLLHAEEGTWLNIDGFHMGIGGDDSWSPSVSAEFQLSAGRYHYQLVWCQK

[7] = biological target: T3, Heat shock factor protein 1 (Mus musculus, UniProt P38532); experiment: inhibition of MG132-induced HSE-luciferase signal, confirmation, cell-based, NIH3T3, luminescence, dose retest (AID 2382); format: functional;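 note: NIH3T3 fibroblasts with HSF1-driven luciferase reporter stressed by proteasome inhibitor MG132; luminescence from HSF1-driven luciferase expression after 8 hours of MG132 stress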
T3 sequence (P38532 whole entry): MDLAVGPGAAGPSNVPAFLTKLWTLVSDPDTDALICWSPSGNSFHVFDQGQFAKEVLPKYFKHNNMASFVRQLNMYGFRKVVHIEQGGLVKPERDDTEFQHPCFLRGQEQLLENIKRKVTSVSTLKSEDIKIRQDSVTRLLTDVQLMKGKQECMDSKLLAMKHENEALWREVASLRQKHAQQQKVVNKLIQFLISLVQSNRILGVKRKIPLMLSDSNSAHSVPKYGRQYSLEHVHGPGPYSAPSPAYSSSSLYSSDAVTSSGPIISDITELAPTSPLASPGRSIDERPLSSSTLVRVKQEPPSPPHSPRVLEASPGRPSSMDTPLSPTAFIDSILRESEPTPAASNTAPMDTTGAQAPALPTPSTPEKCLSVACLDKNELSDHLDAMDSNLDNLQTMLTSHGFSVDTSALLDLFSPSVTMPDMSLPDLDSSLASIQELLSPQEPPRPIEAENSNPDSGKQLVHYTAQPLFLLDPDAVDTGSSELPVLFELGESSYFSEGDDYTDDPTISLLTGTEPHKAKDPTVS

[8] = biological target: T4, Insulin-degrading enzyme (Homo sapiens, UniProt P14735); experiment: Dose Response: Fluorescence polarization-based cell-based high throughput dose response assay for inhibitors of insulin-degrading enzyme (IDE). [Related pubchem assays: 434962 (Primary screen (IDE inhibitors in singlicate)), 449730 (Counterscreen (Cytotoxicity in triplicate)), 435028 (Confirmation (IDE inhibitors in triplicate)), 434984 (Summary …; format: functional
T4 sequence (P14735 whole entry): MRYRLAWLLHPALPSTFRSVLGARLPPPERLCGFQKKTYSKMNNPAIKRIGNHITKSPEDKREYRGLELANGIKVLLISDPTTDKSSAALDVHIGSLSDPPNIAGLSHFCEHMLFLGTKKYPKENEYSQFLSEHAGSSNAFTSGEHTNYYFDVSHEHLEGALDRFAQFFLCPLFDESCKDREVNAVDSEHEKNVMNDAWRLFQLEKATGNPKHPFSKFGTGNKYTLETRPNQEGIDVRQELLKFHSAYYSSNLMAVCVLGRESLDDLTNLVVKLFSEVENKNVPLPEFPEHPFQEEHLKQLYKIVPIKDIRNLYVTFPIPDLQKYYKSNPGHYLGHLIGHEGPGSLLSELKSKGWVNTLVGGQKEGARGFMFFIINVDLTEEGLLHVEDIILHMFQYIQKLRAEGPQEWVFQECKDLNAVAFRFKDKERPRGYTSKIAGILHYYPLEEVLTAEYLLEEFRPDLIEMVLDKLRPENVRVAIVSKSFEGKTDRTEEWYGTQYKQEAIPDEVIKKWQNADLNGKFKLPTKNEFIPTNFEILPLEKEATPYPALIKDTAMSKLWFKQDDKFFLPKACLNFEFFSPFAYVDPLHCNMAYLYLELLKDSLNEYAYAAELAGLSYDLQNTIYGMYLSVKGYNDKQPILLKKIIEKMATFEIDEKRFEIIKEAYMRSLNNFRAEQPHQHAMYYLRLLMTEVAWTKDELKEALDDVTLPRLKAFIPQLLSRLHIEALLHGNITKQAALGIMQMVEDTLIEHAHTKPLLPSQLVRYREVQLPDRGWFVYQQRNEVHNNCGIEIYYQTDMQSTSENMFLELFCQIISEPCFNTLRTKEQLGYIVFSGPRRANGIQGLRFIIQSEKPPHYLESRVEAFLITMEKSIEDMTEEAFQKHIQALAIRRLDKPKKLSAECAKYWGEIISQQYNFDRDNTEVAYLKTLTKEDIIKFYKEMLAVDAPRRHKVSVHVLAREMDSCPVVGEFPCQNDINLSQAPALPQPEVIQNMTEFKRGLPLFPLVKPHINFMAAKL

[9] = Counterscreen for IDE inhibitors: Luminescence-based cell-based high throughput dose response assay to identify compounds that are cytotoxic to HEK cells. [Related pubchem assays: 434962 (Primary screen (IDE inhibitors in singlicate)), 449730 (Counterscreen (Cytotoxicity in triplicate)), 435028 (Confirmation (IDE inhibitors in triplicate)) …; format: functional; settings: HEK293
[10] = biological target: T2, Beta-galactosidase; format: functional
[11] = biological target: T5, Kappa-type opioid receptor (Homo sapiens, UniProt P41145); format: functional
T5 sequence (P41145 whole entry): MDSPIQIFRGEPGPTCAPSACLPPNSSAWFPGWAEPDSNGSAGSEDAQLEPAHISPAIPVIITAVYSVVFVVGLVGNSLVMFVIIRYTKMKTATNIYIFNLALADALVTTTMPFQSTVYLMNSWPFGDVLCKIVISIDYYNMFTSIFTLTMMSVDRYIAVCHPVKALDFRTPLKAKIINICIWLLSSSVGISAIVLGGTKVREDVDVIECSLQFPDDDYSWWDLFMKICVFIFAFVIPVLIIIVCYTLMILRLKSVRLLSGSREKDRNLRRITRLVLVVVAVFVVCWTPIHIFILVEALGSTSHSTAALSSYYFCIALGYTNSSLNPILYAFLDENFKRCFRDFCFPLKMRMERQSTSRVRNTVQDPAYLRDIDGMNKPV

[12] = biological target: T5, Kappa-type opioid receptor; format: functional; remark: listed apart in the source
[13] = biological target: T6, High affinity choline transporter 1 (Homo sapiens, UniProt Q9GZV3); experiment: CHT inhibitors, dose response, cell-based, 5-point CRC, membrane potential dye (AID 504840); format: functional
T6 sequence (Q9GZV3 whole entry): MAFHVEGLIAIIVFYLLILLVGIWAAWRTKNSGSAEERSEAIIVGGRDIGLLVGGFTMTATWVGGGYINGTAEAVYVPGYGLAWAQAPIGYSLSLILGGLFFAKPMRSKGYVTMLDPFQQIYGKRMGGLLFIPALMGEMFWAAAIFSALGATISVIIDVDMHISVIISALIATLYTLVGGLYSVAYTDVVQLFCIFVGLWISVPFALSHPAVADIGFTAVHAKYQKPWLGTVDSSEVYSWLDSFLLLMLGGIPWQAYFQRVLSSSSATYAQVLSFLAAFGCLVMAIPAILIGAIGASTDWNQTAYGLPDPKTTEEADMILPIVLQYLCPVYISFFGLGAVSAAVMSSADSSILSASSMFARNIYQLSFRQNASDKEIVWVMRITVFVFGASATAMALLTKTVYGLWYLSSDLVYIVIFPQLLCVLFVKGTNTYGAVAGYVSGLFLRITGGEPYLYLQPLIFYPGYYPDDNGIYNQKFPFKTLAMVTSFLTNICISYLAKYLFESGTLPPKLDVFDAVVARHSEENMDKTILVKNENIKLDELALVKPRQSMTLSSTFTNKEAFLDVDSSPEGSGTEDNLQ

[14] = biological target: Alkaline phosphatase, placental type (Homo sapiens, UniProt P05187); experiment: PLAP enzyme inhibitors, confirmation, biochemical, luminescence (AID 1512); format: functional
Sequence of Alkaline phosphatase, placental type (P05187 whole entry): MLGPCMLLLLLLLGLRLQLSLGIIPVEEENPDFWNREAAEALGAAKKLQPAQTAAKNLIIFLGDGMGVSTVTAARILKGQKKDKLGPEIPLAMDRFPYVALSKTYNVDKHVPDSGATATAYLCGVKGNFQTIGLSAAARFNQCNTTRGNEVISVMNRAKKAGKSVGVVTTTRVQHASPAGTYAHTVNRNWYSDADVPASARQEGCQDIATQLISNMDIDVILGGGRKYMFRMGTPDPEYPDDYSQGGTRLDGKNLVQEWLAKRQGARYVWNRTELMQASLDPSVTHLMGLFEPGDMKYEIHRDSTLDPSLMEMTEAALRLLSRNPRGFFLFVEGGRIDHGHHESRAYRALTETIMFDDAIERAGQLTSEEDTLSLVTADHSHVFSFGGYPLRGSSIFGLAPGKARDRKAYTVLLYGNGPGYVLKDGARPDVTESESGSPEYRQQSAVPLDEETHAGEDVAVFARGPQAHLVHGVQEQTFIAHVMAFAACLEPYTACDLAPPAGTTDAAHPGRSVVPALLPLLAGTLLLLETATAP

[15] = biological target: G-protein coupled receptor 55 (Homo sapiens, UniProt Q9Y2T6); experiment: GPR55 agonists via beta-arrestin recruitment, primary screen, imaging, U2OS cells, beta-arrestin-GFP redistribution (AID 1961); format: functional
Sequence of G-protein coupled receptor 55 (Q9Y2T6 whole entry): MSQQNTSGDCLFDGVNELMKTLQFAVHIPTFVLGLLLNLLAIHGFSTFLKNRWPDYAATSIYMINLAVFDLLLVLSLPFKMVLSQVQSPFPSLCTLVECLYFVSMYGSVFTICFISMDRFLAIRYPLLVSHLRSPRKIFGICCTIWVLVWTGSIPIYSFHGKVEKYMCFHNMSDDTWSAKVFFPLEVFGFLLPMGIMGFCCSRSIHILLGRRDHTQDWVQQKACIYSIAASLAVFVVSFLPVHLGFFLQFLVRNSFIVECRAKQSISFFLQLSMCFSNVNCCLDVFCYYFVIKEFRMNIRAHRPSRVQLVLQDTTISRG

[16] = biological target: T7, Hexokinase (Trypanosoma brucei, UniProt Q38C41); experiment: Confirmation assay for inhibitors of Trypanosoma brucei hexokinase 1-Analogue-first series. [Related pubchem assays (depositor defined):AID1430, AID1632, AID2516, AID2560, AID2579, AID2600, AID449725, AID492951]; format: functional
T7 sequence (Q38C41 whole entry): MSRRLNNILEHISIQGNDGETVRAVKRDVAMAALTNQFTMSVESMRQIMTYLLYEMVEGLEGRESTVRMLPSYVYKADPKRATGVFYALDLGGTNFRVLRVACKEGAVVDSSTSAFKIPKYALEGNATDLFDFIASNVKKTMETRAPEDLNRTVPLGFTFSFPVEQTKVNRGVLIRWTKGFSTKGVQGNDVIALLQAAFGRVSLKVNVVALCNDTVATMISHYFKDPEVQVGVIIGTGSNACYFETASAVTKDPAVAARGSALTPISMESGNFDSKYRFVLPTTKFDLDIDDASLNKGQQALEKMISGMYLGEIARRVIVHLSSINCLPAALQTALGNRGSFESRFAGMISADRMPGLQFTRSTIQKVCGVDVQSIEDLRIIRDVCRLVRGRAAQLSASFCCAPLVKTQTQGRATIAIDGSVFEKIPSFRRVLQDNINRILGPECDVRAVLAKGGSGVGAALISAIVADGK

[17] = biological target: Tumor necrosis factor (Homo sapiens, UniProt P01375); experiment: TNFa-triggered NF-kB activation inhibitors, SAR follow-up, cell-based, revised (AID 2337); format: functional
Sequence of Tumor necrosis factor (P01375 whole entry): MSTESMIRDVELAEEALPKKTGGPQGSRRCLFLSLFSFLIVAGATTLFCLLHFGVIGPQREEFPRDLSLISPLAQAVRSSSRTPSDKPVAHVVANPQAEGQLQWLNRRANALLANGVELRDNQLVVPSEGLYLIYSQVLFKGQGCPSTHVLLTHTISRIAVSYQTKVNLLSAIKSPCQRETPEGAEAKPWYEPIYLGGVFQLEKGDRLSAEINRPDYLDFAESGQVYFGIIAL

[18] = system: HEK293; experiment: cells; settings: Homo sapiens;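 note: cells exposed to compound for 14 hours overnight before viability readout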
[19] = biological target: Nucleotide-binding oligomerization domain-containing protein 2 (Homo sapiens, UniProt Q9HC29); experiment: PubChem AID 2334; format: functional
Sequence of Nucleotide-binding oligomerization domain-containing protein 2 (Q9HC29 whole entry, the tested form may be a part): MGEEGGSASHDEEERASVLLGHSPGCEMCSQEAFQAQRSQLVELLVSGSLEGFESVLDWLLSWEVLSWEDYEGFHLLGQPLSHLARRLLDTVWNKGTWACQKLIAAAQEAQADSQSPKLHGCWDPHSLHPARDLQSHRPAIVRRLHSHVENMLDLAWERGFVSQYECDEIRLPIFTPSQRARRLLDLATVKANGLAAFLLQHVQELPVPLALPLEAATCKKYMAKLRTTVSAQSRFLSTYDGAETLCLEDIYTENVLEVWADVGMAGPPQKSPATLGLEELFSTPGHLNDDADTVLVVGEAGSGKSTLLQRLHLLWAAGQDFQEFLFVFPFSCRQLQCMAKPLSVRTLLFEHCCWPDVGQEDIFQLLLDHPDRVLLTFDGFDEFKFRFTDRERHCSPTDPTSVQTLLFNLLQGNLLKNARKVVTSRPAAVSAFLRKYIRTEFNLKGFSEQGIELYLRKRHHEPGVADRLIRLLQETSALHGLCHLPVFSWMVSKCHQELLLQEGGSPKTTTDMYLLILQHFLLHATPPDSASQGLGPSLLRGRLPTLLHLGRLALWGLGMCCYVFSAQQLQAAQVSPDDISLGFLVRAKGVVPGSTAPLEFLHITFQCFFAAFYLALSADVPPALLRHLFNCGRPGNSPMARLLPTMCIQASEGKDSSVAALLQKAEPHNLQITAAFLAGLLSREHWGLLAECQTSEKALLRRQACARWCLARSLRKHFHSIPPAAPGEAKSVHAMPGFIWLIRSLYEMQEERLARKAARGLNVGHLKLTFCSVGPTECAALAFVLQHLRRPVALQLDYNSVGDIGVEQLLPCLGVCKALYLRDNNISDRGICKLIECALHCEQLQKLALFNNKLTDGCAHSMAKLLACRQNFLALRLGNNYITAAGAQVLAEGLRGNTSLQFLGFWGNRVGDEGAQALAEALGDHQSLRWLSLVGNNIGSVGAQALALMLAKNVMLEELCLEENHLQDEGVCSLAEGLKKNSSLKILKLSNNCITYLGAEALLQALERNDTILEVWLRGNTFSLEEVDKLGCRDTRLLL

[20] = biological target: T8, Nucleotide-binding oligomerization domain-containing protein 1 (Homo sapiens, UniProt Q9Y239); experiment: NOD1 signaling inhibitors, SAR follow-up, revised (AID 2333); format: functional
T8 sequence (Q9Y239 whole entry): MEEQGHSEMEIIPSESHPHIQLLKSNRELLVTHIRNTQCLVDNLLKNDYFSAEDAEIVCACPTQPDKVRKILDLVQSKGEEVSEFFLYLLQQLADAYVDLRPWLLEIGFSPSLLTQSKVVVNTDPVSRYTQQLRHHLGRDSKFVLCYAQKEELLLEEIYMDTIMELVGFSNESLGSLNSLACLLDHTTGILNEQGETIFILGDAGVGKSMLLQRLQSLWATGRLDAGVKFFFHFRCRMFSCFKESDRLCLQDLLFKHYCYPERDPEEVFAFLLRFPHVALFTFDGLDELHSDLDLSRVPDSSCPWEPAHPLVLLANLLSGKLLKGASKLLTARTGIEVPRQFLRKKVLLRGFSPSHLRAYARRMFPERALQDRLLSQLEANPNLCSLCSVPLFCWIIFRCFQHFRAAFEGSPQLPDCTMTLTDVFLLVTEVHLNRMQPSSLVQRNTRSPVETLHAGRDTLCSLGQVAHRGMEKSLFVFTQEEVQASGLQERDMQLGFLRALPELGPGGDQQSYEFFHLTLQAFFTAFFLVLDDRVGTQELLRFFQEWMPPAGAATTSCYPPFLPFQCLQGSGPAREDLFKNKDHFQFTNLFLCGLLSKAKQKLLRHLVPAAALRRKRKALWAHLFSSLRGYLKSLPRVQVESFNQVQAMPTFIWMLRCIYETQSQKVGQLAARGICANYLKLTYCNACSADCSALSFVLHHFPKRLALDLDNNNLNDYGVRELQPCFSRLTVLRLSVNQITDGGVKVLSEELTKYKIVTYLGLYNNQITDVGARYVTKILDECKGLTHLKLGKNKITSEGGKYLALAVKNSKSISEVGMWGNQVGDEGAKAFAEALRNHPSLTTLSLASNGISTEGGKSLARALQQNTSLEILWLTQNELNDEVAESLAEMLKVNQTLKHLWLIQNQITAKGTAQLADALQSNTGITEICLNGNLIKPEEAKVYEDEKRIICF

O=S(=O)(c1ccccc1)c1nc(-c2ccco2)oc1N1CCOCC1
EC50 [1]: > 79.4 µM (not active) | EC50 [2]: > 79.4 µM (not active) | EC50 [3]: 85.1 µM (not active)

Cc1cc(C)c(S(=O)(=O)Nc2cnc3ccccc3c2)c(C)c1
IC50 [4]: > 100 µM (inactive) | IC50 [5]: > 100 µM (not active)

O=C(Cc1ccccc1)Nc1cccc(N2C(=O)C=CC2=O)c1
IC50 [6]: > 66.6 µM (inactive) | EC50 [7]: 19 µM (active)

O=C(c1ccco1)N1CCN(c2ccnc3cc(Cl)ccc23)CC1
IC50 [8]: > 18.6 µM (not active) | IC50 [9]: 18.2 µM (not active)

O=C1/C(=C\c2ccc(O)cc2)SC(=S)N1c1cccnc1
EC50 [10]: 14.6 µM (active) | IC50 [11]: 11.4 µM (active) | IC50 [12]: > 32 µM

Cc1ccc(-c2nnc(N3CC(C)OC(C)C3)c3ccccc23)cc1 (centres undefined)
IC50 [13]: 17.4 µM (active)

O=C(c1cc(-c2cc(F)c(Cl)cc2Cl)n[nH]1)N1CCOCC1
IC50 [14]: > 100 µM (inactive) | IC50 [4]: 3.37 µM (active) | IC50 [5]: > 100 µM (not active)

COc1ccccc1Cn1c(SCC(=O)C(C)(C)C)nc2cc(C(=O)N3CCC4(CC3)OCCO4)ccc2c1=O
EC50 [15]: 4.58 µM (active)

CN1/C(=C\C(=O)COC(=O)c2ccccc2O)C(C)(C)c2ccccc21
EC50 [15]: 1.67 µM (active)

O=c1c2ccccc2[s+]([O-])n1-c1cccc(F)c1 (centres undefined)
IC50 [16]: > 25 µM (inactive)

CCOc1ccc(C(=O)NC2CCCc3c2cnn3-c2ccccc2F)cc1 (centres undefined)
IC50 [17]: > 20 µM (inactive) | IC50 [18]: > 20 µM (inactive) | IC50 [19]: 18.5 µM (active) | IC50 [20]: 12.8 µM (active)

COc1ccc(C(=O)Nc2cc(F)ccc2C(=O)O)cc1
IC50 [16]: 24.8 µM (active)

COc1ccccc1CNC(=O)c1oc2ccccc2c1C
EC50 [15]: 3.85 µM (active)

CCc1cc(C(=O)NC2CCCc3c2cnn3-c2ccccc2F)no1 (centres undefined)
IC50 [17]: > 20 µM (inactive) | IC50 [18]: > 20 µM (inactive) | IC50 [19]: > 20 µM (inactive) | IC50 [20]: 17.5 µM (active)

Cn1nccc1C(=O)N[C@H]1CCCc2c1cnn2-c1ccccc1F
IC50 [17]: 0.994 µM (active) | IC50 [18]: > 20 µM (inactive) | IC50 [19]: 1.12 µM (active) | IC50 [20]: 0.781 µM (active)

COc1ccc2sn(-c3ccccc3)c(=O)c2c1
IC50 [16]: 3.22 µM (active)
